In PubChem BioAssay (NCI):
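Test compounds were applied to cells in 96-well plates for 48 hours at 5 doses. GI50 marks 50% less growth. TGI: total growth inhibition.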

Assays:
Assay in all cases: NCI tumour cell line growth inhibition, 48 h
[1] = system: SK-MEL-2 melanoma
[2] = system: BT-549 breast
[3] = system: HOP-62 NSCLC
[4] = system: KM12 colon
[5] = system: UACC-62 melanoma
[6] = system: MDA-MB-435
[7] = system: M14 melanoma
[8] = system: NCI-H23 lung
[9] = system: DU-145 prostate
[10] = system: HT29 colon

| SMILES | GI50 [1] [µM] | TGI [1] [µM] | GI50 [2] [µM] | TGI [2] [µM] | GI50 [3] [µM] | TGI [3] [µM] | GI50 [4] [µM] | TGI [4] [µM] | GI50 [5] [µM] | TGI [5] [µM] | GI50 [6] [µM] | TGI [6] [µM] | GI50 [7] [µM] | TGI [7] [µM] | GI50 [8] [µM] | TGI [8] [µM] | GI50 [9] [µM] | TGI [9] [µM] | GI50 [10] [µM] | TGI [10] [µM] |
| --- | --- | --- | --- | --- | --- | --- | --- | --- | --- | --- | --- | --- | --- | --- | --- | --- | --- | --- | --- | --- |
| CCc1ccc(CCC(=O)Nc2ncc(Cc3ccccc3)s2)o1 | 5.42 | > 100 | 52.2 | > 100 | 2.91 | > 100 | 1.3 | > 100 | 1.21 | > 100 | 0.301 | 10.1 | 0.876 | > 100 | 4.47 | > 100 | 4.51 | > 100 | 1.02 | > 100 |
| C=C1C(=O)O[C@@H]2C[C@@H](C)[C@@H]3[C@@H](OC4OC(COC(C)=O)C(O)C(O)C4O)CC(=O)[C@@]3(C)C[C@H]12 (stereo not given in full) | – | 20.7 | – | 3.13 | – | 31.6 | – | 22.9 | – | 2.98 | – | 6.03 | – | 2.85 | – | 25.7 | – | 21.5 | – | 2.93 |
| COC[C@H]1OC(=O)c2coc3c2[C@@]1(C)C1=C(C3=O)[C@@H]2CCC(=O)[C@@]2(C)C[C@H]1OC(C)=O | – | 16.6 | 0.485 | 12.7 | – | > 100 | – | > 100 | – | 17.5 | – | > 54.3 | – | > 59 | – | > 100 | – | > 100 | – | 97.8 |
| O=C(Nc1ccc2oc(=O)c(C(=O)O)cc2c1)Oc1ccccc1 | – | > 100 | – | > 100 | – | > 100 | – | > 100 | – | > 100 | – | > 100 | – | > 100 | – | > 100 | – | > 100 | – | > 100 |
| O=C(CNC(=O)c1cccc2ccccc12)Nc1ccccc1Oc1ccccc1 | 0.272 | > 10 | 0.41 | 5.43 | 0.354 | > 10 | 0.289 | > 10 | 0.177 | > 10 | 0.0425 | 0.313 | 0.278 | > 10 | 0.658 | > 10 | 0.325 | > 10 | 0.29 | 1.07 |
| O=C(Nc1ccc(Nc2ccncc2)cc1)c1ccc(Nc2ccnc3ccc([N+](=O)[O-])cc23)cc1 | > 100 | > 100 | > 100 | > 100 | > 100 | > 100 | > 100 | > 100 | 68.1 | > 100 | > 100 | > 100 | > 100 | > 100 | > 100 | > 100 | > 100 | > 100 | > 100 | > 100 |
| O=C(c1cc(-c2cc3c(cc2C(=O)N2Cc4ccccc4C[C@H]2CN2CCOCC2)OCO3)n2c1CCCC2)N(c1ccccc1)c1ccc(O)cc1 | 10.2 | 54.4 | 36.4 | > 100 | 64.4 | > 100 | 12.9 | > 100 | 8.62 | > 100 | 8.55 | 98.9 | 18.1 | > 100 | 34.8 | > 100 | 18 | > 100 | 5.14 | > 100 |
| COc1ccc(C(=O)c2cc(OC)c(OC)c(OC)c2)cc1O | 0.238 | > 100 | 0.0337 | > 100 | 0.0931 | > 100 | < 0.0155 | > 100 | 1.1 | > 100 | < 0.01 | – | < 0.01 | > 100 | 0.055 | > 100 | 0.0387 | > 100 | 1.96 | > 49.5 |
| COc1ccc(C2=C(c3cn(C)c4ccccc34)C(=O)NC2=O)cc1OC | 6.18 | > 18.6 | 8.02 | > 25 | 11.8 | > 25 | 6.34 | > 25 | 8.12 | > 25 | 1.1 | > 25 | 6.83 | > 25 | 10.3 | > 25 | > 19.4 | > 25 | 6.78 | > 25 |
| Cc1ccc(NS(=O)(=O)c2cc(C)ccc2C)cc1 | 3.2 | 9.64 | 9.62 | 27.4 | 4.49 | > 100 | 1.73 | 16.5 | 3.08 | 19.9 | 0.351 | 2.57 | 2.43 | 11 | 4.65 | 50.5 | 6.17 | 28.1 | 2.84 | 12.3 |
| Cc1c(Cl)cccc1NC(=O)c1sc2nc3c(cc2c1N)CCCCCC3 | 0.196 | 24.2 | 0.439 | 23.4 | 0.326 | 19.8 | 0.197 | > 50 | 0.205 | 46.6 | 0.0761 | 0.251 | 0.154 | > 50 | 0.273 | > 50 | 0.258 | > 50 | 0.188 | 6.56 |
| Cc1cc(-c2nc3ccc(O)cc3s2)ccc1N | > 100 | > 100 | 14.2 | 33.9 | 31.1 | > 100 | 57.9 | > 100 | 57.7 | > 100 | 88.3 | > 100 | 33.1 | > 100 | 12.5 | 43.7 | 34.1 | > 100 | 37.5 | > 100 |
| CC1(C)N=C(N)N=C(N)N1c1cccc(CCCCc2ccc(S(=O)(=O)F)cc2Cl)c1 | 6.42 | > 58.5 | 4.31 | > 46.3 | 5.72 | 20.7 | 1.72 | 15.7 | 0.494 | 17.1 | 0.611 | 18.5 | 7.55 | 28.1 | 4.27 | 27.3 | 4.06 | > 59.8 | 0.788 | > 100 |
| NC1CCC[C@@H](O)[C@H]1O (stereo not given in full) | – | > 100 | – | > 100 | – | > 100 | – | > 100 | – | > 100 | – | > 100 | – | > 100 | – | > 100 | – | > 100 | – | > 100 |
